Results taken from patent US12268676B2, “Antiviral applications of picolinic acid and its derivatives” (INDIAN INSTITUTE OF SCIENCE, priority 2021, dated 2025).
Several values for one entry are separate records, joined by “and”; a condition that tells them apart may be missing. Equal values may be shown once. Read-outs that look alike come from different tables or passages of the source.

Experiments:
[1] = tested on: Influenza virus (NS1 Luc); test: microbe, parasite or virus in culture; type: cell-based, Influenza A virus; conditions: unidentified influenza virus, A549, read-out: inhibition of virus (luminescence, percentage of untreated virus control)
[2] = tested on: Para Influenza virus (HPIV Luc); test: microbe, parasite or virus in culture; type: cell-based, Human parainfluenza virus; conditions: unidentified influenza virus
[3] = tested on: PR8 WT virus (strain A/Puerto Rico/8/1934 H1N1); type: cell-based, Influenza A virus
[4] = tested on: pseudotyped SARS CoV-2 particles; test: microbe, parasite or virus in culture; type: cell-based
Dengue virus (DENV Luc) = test: microbe, parasite or virus in culture; type: cell-based; conditions: A549, 48 h, read-out: inhibition (luciferase, normalized with untreated control)
SARS-CoV-2 [5] = test: SARS CoV-2 infection studies in the hamster model; type: in vivo, Syrian golden hamsters; conditions: for viral RNA load mitigated by: 20 mg/kg PA therapeutic treatment
SARS-CoV-2 [6] = test: SARS CoV-2 time of addition assay (IFA for spike, western blot); type: cell-based; conditions: for virus replication mitigated (spike positive cells, IFA): 10 MOI
[7] = tested on: R18 labelled PR8 WT virus; test: Influenza virus membrane fusion assay (R18 fluorescence); type: cell-based, Influenza A virus
[8] = tested on: Tf647 labelled endocytic vesicles; test: Localization of transferrin labelled vesicles, confocal microscopy; type: cell-based; conditions: VeroE6, 2 mM PA, 100 MOI PR8 WT virus
Protocol: Localization of transferrin labelled vesicles: Vero cells were seeded on glass coverslips in a 12 well dish to reach 70-80% confluency next day. After 3 hr treatment/not with 2 mM PA, cells were washed once with ice cold PBS and the plate was placed on ice for 10 min before incubating with OptiMEM containing PR8 wild type virus (100 MOI) and 25 μg/mL Transferrin 647 (Tf-647) for 1 hr on ice. Cells were washed twice with PBS and the plate moved to 37° C. After a 15 min chase, cells were fixed with 4% PFA, labelled with anti influenza virus HA antibody (PY102) followed by anti-mouse Alexa 488 secondary antibody to label the virus particles. Nuclei were labelled using 0.1 μg/mL DAPI. Images were acquired using a Zeiss LSM-880 Multiphoton microscope.
The dispersion of transferrin labelled vesicles from perinuclear region to cell periphery was quantified by drawing region of interests (ROIs) up to 20 μm away from the nuclei. The fluorescence intensity of Tf-647 labelled vesicles was then measured along this distance using ImageJ/Fiji.

PR8 WT virus particles = tested on: PR8 WT virus particles; set-up: species or system Influenza A virus
Rota virus RRV strain = test: Rotavirus RRV infection of HEK cells, IFA for VP6; type: cell-based; conditions: HEK cells pre-treated with 2 mM PA, 12 hr
Protocol: Percentage positive cells was quantified using ImageJ/Fiji.
Rotavirus RRV infection: A working concentration of Rota virus was prepared by diluting the virus stock 2-fold with complete DMEM containing a final concentration of 2 μg/mL TPCK trypsin. The mixture was incubated at 37° C. for 30 min and further diluted 2-fold in DMEM without serum. This mixture was then used to infect HEK cells that were pre-treated for 3 hr with 2 mM PA. A volume of 100 μL per well, in a 24 well plate was used for 1 hr adsorption, after which the wells were topped up with 400 μL serum free media containing PA. After 12 hr, cells were fixed with 4% formalin and immunolabeled with primary mouse anti VP6, and anti-mouse secondary Alexa Fluor 488 antibodies to detect virus infected cells by IFA.

AAV6-GFP particles = test: AAV6-GFP infection of HEK cells, flow cytometry; type: cell-based, Adeno Associated Virus-6; conditions: 2 mM PA, all virus volumes tested, 48 hr p.i.
M. smegmatis cells = test: Bacterial toxicity assay, OD600; type: cell-based, Mycobacterium smegmatis; conditions: up to 24 hr, least concentration tested
Protocol: Since most of the naked viruses tested were not inhibited by PA, whether PA would be effective against TM4 mycobacteriophages. M. smegmatis cells in a 48 well plate were treated with increasing concentrations of PA as indicated and OD600 measurements were taken periodically up to 24 hr. […] For the antiviral assay, 1 mM PA was either added at the start of experiment or 3 hr prior to infection. In either case, there was no protection from TM4 mycobacteriophage induced cell death (FIG. 12, panel G).
Bacterial toxicity assay: PA stock solution of 1M concentration was prepared in sterile deionized water and diluted to obtain different concentrations (1 mM, 5 mM, 10 Mm, 20 mM, and 40 mM), in a 48-well plate. A total of 2×10^5 cells of M. smegmatis were added to each of the wells. The 48-well plate was placed in a rotary shaker incubator at 37° C. for 24 h. Readings were taken periodically using a Tecan Spark multi-mode plate reader at 600 nm.

[9] = mouse, in vivo
[10] = tested on: clathrin mediated endocytosis; test: Transferrin uptake assay, flow cytometry; conditions: A549, 2 mM PA, 1 hr pulse with 25 μg/mL Tf647

O=C(O)c1ccccn1 [PA, pyridine-2-carboxylic acid]
inhibition at 2000 µM [1]: 70 to 80%
inhibition at 2000 µM ([2]; A549, 48 h, read-out: inhibition in reporter virus assay): 80 to 90%
inhibition at 2000 µM ([2]; A549, read-out: inhibition of virus (luminescence, percentage of untreated virus control)): 70 to 80%
decrease in NP positive cells [3]: no decrease
decrease in number of NP positive cells compared to virus control [3]: 75% and 40%
expression levels of virus NP by western blot, virus control vs PA treated [3]: no difference
more effective than CM [4]: ~10%
inhibition at 2000 µM ([4]; Severe acute respiratory syndrome coronavirus 2, 60 h, read-out: inhibition of SARS-CoV-2 spike pseudotyped particles (firefly luciferase normalized to virus control)): 90%
inhibition at 2000 µM ([4]; Severe acute respiratory syndrome coronavirus 2, read-out: inhibition of pseudotyped SARS CoV-2 virus entry): > 50%
inhibition at 2000 µM (Dengue virus (DENV Luc)): > 90%
reduction in lung viral load (SARS-CoV-2 [5]; 20 mg/kg PA prophylactically by IP injection): ~2.5 fold
decrease in lung viral load (SARS-CoV-2 [5]; 20 mg/kg PA prophylactically, delivered orally): 1 log
viral RNA load mitigated by (SARS-CoV-2 [5]; IP route): ~1 log
viral RNA load mitigated by (SARS-CoV-2 [5]; oral route): ~1 log
body weight and lung weight compared to mock treated animals (SARS-CoV-2 [5]; 20 mg/kg PA, prophylactic and therapeutic groups): body weight as well as corresponding lung weight rescue
gross lung pathology and inflammation (images of whole lungs) (SARS-CoV-2 [5]; PA treated groups vs mock treated): much of the pathology reduced
histopathology analysis and scoring of lung sections (SARS-CoV-2 [5]; PA treatment groups): decreased pathology
inhibition of virus (IFA, western blot) (SARS-CoV-2 [6]; HEK ACE2, PA added 6 hr post infection, collected 3 hr later): ~50%
inhibition of virus (IFA, western blot) (SARS-CoV-2 [6]; HEK ACE2, no pre-treatment, infected in presence of drug (T0)): almost no inhibition
virus replication mitigated (spike positive cells, IFA) (SARS-CoV-2 [6]; HEK ACE2, pre-treated 3 hr with 2 mM PA (-3 hr)): > 80%
inhibition of virus (IFA, western blot) (SARS-CoV-2 [6]; VeroE6, PA added 6 hr post infection, collected 3 hr later): no inhibition
inhibition of virus (IFA, western blot) (SARS-CoV-2 [6]; VeroE6, no pre-treatment, infected in presence of drug (T0)): almost no inhibition
virus replication mitigated (spike positive cells, IFA) (SARS-CoV-2 [6]; VeroE6, pre-treated 3 hr with 2 mM PA (-3 hr)): > 80%
virus-entry associated increase in fluorescence intensity [7]: able to inhibit
distance of Tf647 labelled endocytic vesicles from the nuclei [8]: 15-20 microns
virion structural integrity by TEM compared to untreated control (PR8 WT virus particles): severe disruption of viral envelope
effect on virus entry (VP6 positive cells, IFA) (Rota virus RRV strain): did not have any effects
decrease in GFP positive cells (AAV6-GFP particles): 5-10%
non-toxic concentration (OD600) (M. smegmatis cells): 1 mM
toxicity (bodyweight changes over 9 days) [9]: toxic
body weight vs PBS treated control ([9]; ip): no differences in body weight
decrease in total body weight ([9]; ip): 10-12%
cellular uptake of transferrin (Tf647 positive cells) [10]: did not show any differences
